Assay results reported in patent US12144896B2, “Drug delivery system” (INSERM (INSTITUT NATIONAL DE LA SANTÉ ET DE LA RECHERCHE …, priority 2018, dated 2024).
Several values for one entry are separate records, joined by “and”; a condition that tells them apart may be missing. Equal values may be shown once. Blank lines part the entries; values can stand above or below the molecule they belong to.

Experiments:
[1] = clinical studies, end of a 2-hr infusion; cited from earlier work
[2] = Pharmacokinetics after IV bolus injection, two-compartment analysis of plasma Pt; details: mice, 35 μg Pt/mice
Experimental: At specific time points, 15, 30 min, 1, 1.5, 3, 5, 8 and 12 h post dose, 200 μl of blood was taken and separated from plasma. Pt content was detected using ICP/MS.
A first-order, two-compartment model with bolus administration, expressed in terms of CL and V was applied to fit the data, using 1/yhat^2 as weighting function.
Based on the profile obtained (FIGS. 3A and 3B), the data were analyzed using a two-compartmental model.

B6KPC3 cells = assay: MTS cell viability test on B6KPC3 cells; assay type: cell-based; details: B6KPC3, 24 h incubation at 37° C., 0-200 μM
Experimental: (§1) 3.5×10^3 B6KPC3 and A549 cells and 7.5×10^3 HT-29 cells were seeded into 96-well plates. […] After 24 h, cell viability was evaluated through MTS Cell Proliferation Colorimetric Assay Kit (Novus Biologicals, Abingdon, UK). Briefly, medium was removed, and 100 μL of MTS solution diluted 1:10 in serum-free medium were added in each well. In preliminary experiments the time of exposure to MTS (1 h for HT-29 and 3 h for A549 cells) was determined according to the metabolism of each cell type. Absorbance was measured at 492 nm with a microplate reader (EnSpire® Multimode Plate Reader, Perkin Elmer, Boston, Mass., USA).
Cell viability (CV) percentage was evaluated through the following formula: CV (%)=(Absorbance(treated wells))/(Absorbance(control wells))×100 with Absorbance (control wells) considered the absorbance of untreated cells incubated in medium without drugs. G.3 Results for Viability Studies on HT-29, A549 and B6KPC3 Cells: MTS Test
Oxaliplatin, DACHPt, and Blank nanoparticles are thus used as controls. Viability was then evaluated with the MTS assay (see Material and Methods). Data were expressed as % of control (untreated cells). Data are means±SD of two experiments with 3 determinations each.

[3] = tested on: multicellular HT116 spheroids; assay: Multicellular tumor spheroid (MCTS) volume follow-up; assay type: cell-based
Source text: Multi cellular tumor spheroids (MCTS) were formed according to a previous published method [Virgone-Carlotta A, Lemasson M, Mertani H C, et al. In-depth phenotypic characterization of multicellular tumor spheroids: Effects of 5-Fluorouracil. PLOS ONE. 2017; 12(11):e0188100. doi: 10.1371/journal.pone.0188100]. Briefly, MCTS were formed using HTC-116 cell line in Ultra Low Attachment (ULA) 96 wells Round-Bottom plate (Greiner bio-one) to avoid cell-substrate attachment. The cells were trypsinized and were counted using a Malassez grid in order to obtain 2,400 cells per milliliter. This concentration of cells (i.e., 480 cells per well in a volume of 200 μL) was chosen in order to obtain a single spheroid per well, with a spheroid diameter at the end of the experimentation not exceeding 500 μm. The plate was centrifuged for 5 minutes at 1,200 g at room temperature to initiate the formation of spheroids. The plate was placed in the incubator under agitation at 37° C. and 5% CO2 during the whole experiment. At the end of the first day after seeding, 100 μL of culture medium was added to ensure proper 3D growth. […] The treatment was renewed during 3 days. Results are shown on FIGS. 4 to 6.
Blank NP were also used to assess nonspecific toxicity that could arise from the system. MCTS were monitored at day 0, 1, 2, 3, 4, and 7 day post treatment. Eight spheroids (n=8) were probed at each concentration (5, 25 and 50 μM). A ring of detaching cells appeared spontaneously after one day of treatment. The spheroids were transferred into new well plates to eliminate mechanically this uncohesive peripheral cell layer and to renew the drug and culture medium. Therefore, the reduction in volume monitored during treatment arose from a loss of viability as well as from a loss of cohesiveness.
We performed edge detection using a sobel threshold for each spheroid using the Image J software. The resulting binary images were fitted to an ellipse of major (LM) and minor (Lm) axes using the ImageJ “Analyse Particles” plugins. From this, a mean diameter was calculated, D=(LM+Lm)/2. The volume V was then determined assuming that the spheroids are spherical V=πD3/6. Results are shown on FIG. 7.
The volume of MCTS was evaluated from phase contrast microscopy images as a readout of cytotoxic effect. The data reported in FIGS. 4-6 represent normalized MCTS volume for different treatments with respect to the control volume (MCTS not treated). Three different drug concentrations were tested: 5, 25 and 50 μM.

A549 cells = assay: MTS cell viability test on A549 cells; assay type: cell-based, Human; details: A549, 24 h incubation at 37° C., 0-200 μM
Experimental: (§2) Human lung alveolar carcinoma A549 cells, provided by Prof. L. Migliore, University of Pisa, were grown in Ham's F12 medium supplemented with 10% Fetal Bovine Serum (FBS), 1 mM Gln, and antibiotics. Human colorectal adenocarcinoma HT-29 cells, provided by Prof. P. Petronini, University of Parma, were grown in DMEM High (glucose 4.5 g/1) supplemented with 10% FBS, 2 mM Gln and antibiotics. Cells were incubated at 37° C. at 5% CO2; after thawing, all cells were used for less than ten passages.
as §1, with “Briefly, medium was removed, and 100 μL of MTS solution diluted 1:10 in serum-free medium were added in each well.” left out
(§3) Cell viability (CV) percentage was evaluated through the following formula: CV (%)=(Absorbance(treated wells))/(Absorbance(control wells))×100 with Absorbance (control wells) considered the absorbance of untreated cells incubated in medium without drugs. […]
(§4) Oxaliplatin, DACHPt, and Blank nanoparticles are thus used as controls. Viability was then evaluated with the MTS assay (see Material and Methods). […]

HT-29 cells = assay: MTS cell viability test on HT-29 cells; assay type: cell-based, Human; details: HT-29, 24 h incubation at 37° C., 0-200 μM
Experimental: as §2
as §1, with “Briefly, medium was removed, and 100 μL of MTS solution diluted 1:10 in serum-free medium were added in each well.” left out
as §3, §4

Molecule: (R,R)-1,2-diaminocyclohexane(ethanedioato-O,O)platinum [Oxaliplatin]
administered platinum present in the systemic circulation [1]: 15%
AUMC [2]: 65.1 ± 23.8 hr*hr*mg/L
K12 (rate constant central to peripheral compartment) [2]: 4.14 ± 0.72 h⁻¹
K21 (rate constant peripheral to central compartment) [2]: 0.398 ± 0.054 h⁻¹
Q [2]: 0.060 ± 0.008 L/h
Vc [2]: 0.014 ± 0.004 L
Vp [2]: 0.15 ± 0.02 L
Vss [2]: 0.165 L
K21 (rate constant peripheral to central compartment) ([2]; listed as oxaliplatin): 0.398 h⁻¹
K12 (rate constant central to peripheral compartment) ([2]; listed as oxaliplatin solution): 4.14 h⁻¹
Vc ([2]; listed as oxaliplatin solution): 0.014 L
Vp ([2]; listed as oxaliplatin solution): 0.150 L
AUC ([2]; plasma): 3760 ng·h/mL
Alpha_HL (distribution half-life) ([2]; plasma): 8.1 min
CL ([2]; plasma clearance): 0.010 L/h
Beta_HL (elimination half-life) ([2]; plasma, listed as oxaliplatin solution): 13.6 h and 13 h
Cmax ([2]; time 0 hr): 2480 ng/mL
IC50 (B6KPC3 cells): 23 µM
size reduction (%) of spheroids compared to control spheroids at the same day ([3]; 5 μM, Day 0): −1.21%
size reduction (%) of spheroids compared to control spheroids at the same day ([3]; 5 μM, Day 1): 4.52%
size reduction (%) of spheroids compared to control spheroids at the same day ([3]; 5 μM, Day 2): 15.86%
size reduction (%) of spheroids compared to control spheroids at the same day ([3]; 5 μM, Day 3): 24.88%
size reduction (%) of spheroids compared to control spheroids at the same day ([3]; 5 μM, Day 4): 28.73%
size reduction (%) of spheroids compared to control spheroids at the same day ([3]; 25 μM, Day 0): 0.59%
size reduction (%) of spheroids compared to control spheroids at the same day ([3]; 25 μM, Day 1): 16.06%
size reduction (%) of spheroids compared to control spheroids at the same day ([3]; 25 μM, Day 2): 29.27%
size reduction (%) of spheroids compared to control spheroids at the same day ([3]; 25 μM, Day 3): 40.23%
size reduction (%) of spheroids compared to control spheroids at the same day ([3]; 25 μM, Day 4): 45.93%
size reduction (%) of spheroids compared to control spheroids at the same day ([3]; 25 μM, Day 7): 52.04%
size reduction (%) of spheroids compared to control spheroids at the same day ([3]; 50 μM, Day 0): 0.62%
size reduction (%) of spheroids compared to control spheroids at the same day ([3]; 50 μM, Day 1): 16.78%
size reduction (%) of spheroids compared to control spheroids at the same day ([3]; 50 μM, Day 2): 32.53%
size reduction (%) of spheroids compared to control spheroids at the same day ([3]; 50 μM, Day 3): 44.17%
size reduction (%) of spheroids compared to control spheroids at the same day ([3]; 50 μM, Day 4): 48.93%
size reduction (%) of spheroids compared to control spheroids at the same day ([3]; 50 μM, Day 7): 71.67%
appearance of treated spheroids on photographs ([3]; 50 μM, FIG. 7): few cells are still present and formed aggregates
IC50 (A549 cells): 11 µM
IC50 (A549 cells; listed as oxaliplatin reference solution): 12 µM
IC50 (HT-29 cells): 74 µM

IC50 (HT-29 cells): 39 µM
Molecule: NC1CCCCC1N.[Pt+2] (stereo not shown) [DACHPt, di-aqua(1,2-diaminocyclohexane)platinum(II)]
